Counter-ions that a name gives are not always drawn.
System: isolated guinea pig atria
Assay: Inotropic activity: increase in contractile force in isolated guinea pig atria
Settings: Cavia porcellus; isolated left atrium, male guinea pig; 50% change of contractile force over the stabilized rate; Kreb's solution, 37° C., 3 Hz stimulation; read-out: Extrapolated ED50 value (concentration increasing contractile force by 50%)
Method: The aryl and heteroaryl ethers of desacetylforskolin of the present invention are useful in the treatment of cardiac failure by virtue of their ability to elicit a positive inotropic effect as evidenced by an increase in contractile force in an isolated guinea pig atria assay which is performed as follows: Male guinea pigs weighing 200-300 grams are stunned with a blow to the back of the head. The heart is rapidly removed and placed in a petri dish containing Kreb's solution. The ventricle is separated from the atria, the atria are sectioned in the right and left atria, and double-O silk ligatures are tied to the apex of the left atrium. The atrium is fixed to a pair of platinum plate electrodes and suspended in a 20 ml tissue bath containing Kreb's solution aerated with 95% oxygen-5% carbon dioxide at 37° C. One end of the atrium is fixed to a hook in the electrode and the other end is connected to a Grass FT03 force displacement transducer. Resting tension and stabilization time are the same as described above. The atrium is stimulated at 3 Hz, 0.5 msec duration at supramaximal voltage (constant current) via a Grass S88 stimulator and constant current unit. Force of contraction is continuously displaced on a Gould recorder Test drug is prepared as in section A and is added to the tissue baths in the same fashion. Change in contractile force from baseline is determined for each concentration, and the change in contractile force (g) is plotted against accumulated drug concentration (ug/ml). The activity of the test drug, i.e., the increase in contractile force (g) from the stabilized force expressed as the percentage change at a given concentration is determined graphically, as in the ED50 -value, i.e., the extrapolated does (μg/ml) which increases the contractile force by 50% over the stabilized rate.

Q: With `C=C[C@@]1(C)CC(=O)[C@]2(O)[C@@]3(C)[C@@H](O)CCC(C)(C)[C@@H]3[C@H](OC(=O)NCCN(C)C)[C@H](Oc3ccccn3)[C@@]2(C)O1` [A, 7-desacetyl-6-(2-dimethylaminoethylaminocarbonyl)-7-(pyridin-2-yl)forskolin hydrochloride hydrate] as the molecule, how does the EC (50% increase) read?
A: 0.009 µg/mL

Q: How did the EC (50% increase) turn out when `C=C[C@@]1(C)CC(=O)[C@]2(O)[C@@]3(C)[C@@H](O)CCC(C)(C)[C@@H]3[C@H](O)[C@H](Oc3ncccn3)[C@@]2(C)O1` [B, 7-Desacetyl-7-(pyrimidin-2-yl)forskolin] was run?
A: 0.01 µg/mL

Q: For `C=C[C@@]1(C)CC(=O)[C@]2(O)[C@@]3(C)[C@@H](O)CCC(C)(C)[C@@H]3[C@H](O)[C@H](OC(C)=O)[C@@]2(C)O1` [Compound C, Forskolin], which EC (50% increase) is on record?
A: 0.073 µg/mL

From US4999351A, “7-aryl and heteroaryl ethers of desacetylforskolin” (Hoechst-Roussel Pharmaceuticals, Inc., priority 1989, dated 1991)
